This is an account of results in patent US11912693B2, “Compounds for modulating S1P1 activity and methods of using the same” (TREVENA, INC., priority 2017, dated 2024).

For the experiment, the system named is A2780 human ovarian carcinoma. The experiment can be described thus: A2780 human ovarian carcinoma xenograft tumor growth delay in athymic nude mice. The settings on record: 60-day study.

Protocol: Female athymic nude mice (Crl:NU(NCr)-Foxnlnu, Charles River Laboratories) were implanted with A2780 human ovarian carcinoma cells to initiate tumor growth.
Each mouse received 1×10^7 cells (0.1 mL cell suspension) subcutaneously in the right flank, and tumors were monitored as their volumes approached the target range of 100 to 150 mm3. Fourteen days later, designated as Day 1 of the study, mice were sorted into six groups of ten each. […] Tumors were measured twice weekly for the study duration.
Starting on Day 1 of the study, six groups (n=10) of female athymic nude mice with established A2780 tumors were treated according to the following plan. Treatments were administered either by intravenous injection (i.v.) or oral gavage (p.o.) and were adjusted to the body weight of the individual animal. Group 1 received Vehicle 1, i.v., once every other day for five doses (qod×5) and Vehicle 2, p.o., once daily to the end of the study (qd to end), and served as the control group for efficacy analysis. Group 2, the paclitaxel monotherapy group, received paclitaxel i.v., qod×5 plus Vehicle 2, p.o., qd to end. Group 3, the ozanimod monotherapy group, received ozanimod p.o., qd to end plus Vehicle 1, i.v., qod×5. Combination Group 4 received ozanimod p.o., qd to end plus paclitaxel i.v., qod×5.
Animals were monitored individually, and each mouse was euthanized when its tumor reached the endpoint volume of 2000 mm3 or on the final day, whichever came first. The time to endpoint (TTE) was calculated for each mouse. Treatment outcome was determined from percent tumor growth delay (% TGD), defined as the percent increase in median TTE for treated versus control mice, with differences in TTE values between groups deemed statistically significant at P<0.05 using logrank survival analysis. Mice were also monitored for complete regression (CR) and partial regression (PR) responses. An animal with a CR at the end of the study was additionally classified as a tumor-free survivor (TFS). Treatment tolerability was assessed by body weight measurements and frequent observation for clinical signs of treatment-related side effects.

With `CCC1(CC)CC(=O)c2cc(-c3nc(-c4cccnc4)no3)ccc2O1` [Compound 103, 2,2-diethyl-6-[3-(pyridin-3-yl)-1,2,4-oxadiazol-5-yl]-3,4-dihydro-2H-1-benzopyran-4-one], under “monotherapy vs control, paclitaxel i.v. qod×5, ozanimod or Compound 103 p.o. qd to end”, the “percent tumor growth delay (% TGD), monotherapy” value was determined as 15%. In addition, the study survivors entry (n=10 per group, animals surviving the study) is reported as “One”.
